Laboratory results reported in US12128114B2, “177Lu-DOTA-HYNIC-iPSMA as a therapeutic radiopharmaceutical targeting prostate-specific membrane antigen” (INSTITUTO NACIONAL DE INVESTIGACIONES NUCLEARES, priority 2018, dated 2024).

Experiments:
LNCaP-induced tumors = assay: Biodistribution assays in nude mice with LNCaP-induced tumors; type: in vivo
protein PSMA = molecular target: T1, protein PSMA (Homo sapiens, UniProt Q04609); assay: Saturation studies in cancer cells positive for the protein PSMA (LNCaP); type: binding
T1 construct: saturation studies in cancer cells positive for the protein PSMA (LNCaP); endogenous in cells; host or cells: LNCaP

[1] = tested on: metastatic prostate cancer lesions; assay: Radiotherapeutic potential in prostate cancer patients (68Ga-PSMA-11 PET/CT and serum PSA); type: in vivo, human
Description: To evaluate the radiotherapeutic potential, between one and four cycles of ^177Lu-DOTA-HYNIC-iPSMA (3.7 or 7.4 GBq) were administered to 11 patients (mean age: 66 years; range: 45-86) every 8-10 weeks. The response was evaluated using images with ^68Ga-PSMA-11 PET/CT (radiopharmaceutical with a proven affinity in clinical practice and a high-resolution technique for the specific detection of metastatic prostate cancer lesions) and determining serum prostate-specific antigen (PSA) levels before and after treatment.

[2] = Biokinetics and dosimetry in healthy subjects (whole-body images, OLINDA/EXM); type: in vivo, human
Description: To determine the biokinetics and dosimetry for the radiopharmaceutical, whole-body images were acquired for five healthy subjects at 20 mins and 6, 24, 48 and 120 h post-administration of ^177Lu-DOTA-HYNIC-iPSMA (185 MBq). The sequence of images was used to extrapolate the time-activity curves in each organ to adjust the biokinetic model and calculate the total number of disintegrations (N) that occurred in the source regions. The values of N were used in the OLINDA/EXM code to calculate the internal doses of radiation. […] Uptake and excretion is mainly renal, with lower hepatic uptake and high uptake in the […], salivary, and lachrymal glands. The average doses absorbed were 0.23, 0.28, 0.88, and 1.17 mGy/MBq for the spleen, liver, kidney, and salivary glands, respectively.

[3] = In vitro stability tests in human serum; type: in vitro ADME
Text: (§1) The radiopharmaceutical remains stable, with a radiochemical purity of more than 98% for more than 7 days post-labelling. In vitro stability tests in human serum show a serum protein binding of 6.5±1.8% and a high radiochemical stability (>98%).

[4] = Stability of the radiopharmaceutical post-labelling (radiochemical purity); type: physicochemical; settings: for more than 7 days post-labelling
Description: After reconstitution in 1.1 mL sodium acetate 1 M buffer solution pH 5.0 containing the sterile and pyrogen-free solution of lutetium-177 chloride (^177LuCl3) and incubation in a dry bath at 95° C. for 30 minutes, said formulation gave a clear, aqueous solution of the compound to be patented ^177Lu-DOTA-HYNIC-iPSMA (FIG. 1) with a radiochemical purity of more than 98%, as determined by reverse-phase HPLC, which presents the radio-chromatogram shown in FIG. 3.
as §1

[5] = Toxicity in balb-C laboratory mice; type: in vivo; settings: dose of 40 mg/kg
prostate cancer = settings: clinical studies, literature; cited from earlier work

T1 sequence (Q04609 whole entry): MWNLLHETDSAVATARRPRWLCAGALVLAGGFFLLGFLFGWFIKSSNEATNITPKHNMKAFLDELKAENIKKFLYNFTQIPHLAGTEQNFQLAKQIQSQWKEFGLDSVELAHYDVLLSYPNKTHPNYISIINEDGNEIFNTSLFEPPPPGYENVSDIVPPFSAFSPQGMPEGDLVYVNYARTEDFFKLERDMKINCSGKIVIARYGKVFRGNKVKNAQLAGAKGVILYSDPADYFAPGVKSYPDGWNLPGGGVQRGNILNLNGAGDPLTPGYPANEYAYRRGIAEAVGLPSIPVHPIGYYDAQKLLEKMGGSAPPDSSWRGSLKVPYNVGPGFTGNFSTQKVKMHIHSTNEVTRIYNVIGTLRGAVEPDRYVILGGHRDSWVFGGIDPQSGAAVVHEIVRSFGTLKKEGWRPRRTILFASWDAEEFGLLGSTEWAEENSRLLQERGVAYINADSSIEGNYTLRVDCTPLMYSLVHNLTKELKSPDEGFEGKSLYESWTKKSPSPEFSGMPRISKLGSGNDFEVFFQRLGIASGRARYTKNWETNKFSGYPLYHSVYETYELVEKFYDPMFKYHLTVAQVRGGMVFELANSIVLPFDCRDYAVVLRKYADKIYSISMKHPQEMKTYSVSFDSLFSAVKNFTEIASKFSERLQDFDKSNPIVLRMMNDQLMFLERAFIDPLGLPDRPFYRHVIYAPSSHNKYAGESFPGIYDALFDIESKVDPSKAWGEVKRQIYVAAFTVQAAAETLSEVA

## O=C(O)CCC(NC(=O)NC(CCCCNC(=O)C(Cc1ccc2ccccc2c1)NC(=O)c1ccc(NNC(=O)CN2CCN3CCN4CCN(CC2)CC(=O)[O][177Lu]([O]C(=O)C3)[O]C(=O)C4)nc1)C(=O)O)C(=O)O (centres unmarked) [177Lu-DOTA-HYNIC-iPSMA]
LNCaP-induced tumors
  elimination pathway: mainly renal
  uptake in tumors, % of the activity administered per gram of tissue: 9.74±1.13 % ID/g
Protein PSMA
  maximum number of binding sites (Bmax): 5.89 ± 0.47 nM
[1]; 11 patients, one to four cycles of 3.7 or 7.4 GBq every 8-10 weeks
  patients exhibiting a reduction in PSA: Around 60%
[1]; 11 patients, one to four cycles of 3.7 or 7.4 GBq, 68Ga-PSMA-11 PET/CT
  patients with a reduction in the number and size of metastatic lesions and/or uptake intensity, by imaging: 70%
[1]; one patient, three cycles of treatment (FIG. 6)
  metastatic lesion sites on 68Ga-PSMA-11 PET follow-up: decrease in size and number
[2]; healthy subjects, kidney
  average dose absorbed, kidney: 0.88 mGy/MBq
[2]; healthy subjects, liver
  average dose absorbed, liver: 0.28 mGy/MBq
[2]; healthy subjects, salivary glands
  average dose absorbed, salivary glands: 1.17 mGy/MBq
[2]; healthy subjects, spleen
  average dose absorbed, spleen: 0.23 mGy/MBq
[2]; healthy volunteers
  uptake and excretion: mainly renal
[2]; healthy volunteers, 185 MBq, ln 2/0.008
  half life, second slow component (T1/2γ): 79.6 h
[2]; healthy volunteers, 185 MBq, ln 2/0.075
  half life, first slow component (T1/2β): 9.2 h
[2]; healthy volunteers, 185 MBq, ln 2/0.614
  half life, fast component (T1/2α): 1.1 h
[3]
  radiochemical stability: more than 98%
  serum protein binding: 6.5±1.8%
[4]
  radiochemical purity (stability post-labelling): more than 98%
[5]
  toxicity or adverse effects: did not present toxicity or adverse effects

## O=C(O)CCC(NC(=O)NC(CCCCNC(=O)C(Cc1ccc2ccccc2c1)NC(=O)c1ccc(NNC(=O)CN2CCN3CCN4CCN(CC2)CC(=O)[O][Lu]([O]C(=O)C3)[O]C(=O)C4)nc1)C(=O)O)C(=O)O (centres unmarked) [177Lu-DOTA-HYNIC-iPSMA]
Protein PSMA
  Kd: 6.33 ± 2.69 nM

## O=C([O-])CN1CCN(CC(=O)[O-])CCN(CC(=O)NCC2CCC(C(=O)N[C@@H](Cc3ccc4ccccc4c3)C(=O)NCCCC[C@H](NC(=O)N[C@@H](CCC(=O)O)C(=O)O)C(=O)O)CC2)CCN(CC(=O)[O-])CC1.[177Lu+3] (some centres unmarked) [Lu-PSMA-617]
Prostate cancer
  side-effects: no severe side-effects
